Measurements taken from patent publication US20160113936A1, “METHODS FOR MODULATING MONOCYTE FUNCTION” (Georgia Regents Research Institute, Inc., priority 2014, published 2016).

Columns and labels:
[1] = system: monocytic THP-1 cells; experiment: HSP70 protein levels in monocytic THP-1 cells (autoradiograph, FIG. 1); type: cell-based; conditions: β-actin as standard
Source text: FIG. 1 is an autoradiograph showing HSP70 levels in monocytic THP-1 cells treated with NVP-AUY922 or 17-DMAG. β-actin levels are shown as a standard.

[2] = system: NCI 60-cell panel; conditions: read-out: Growth Inhibition of 50% (GI50); cited from earlier work
[3] = in vivo; cited from earlier work
[4] = cited from earlier work
[5] = molecular target: human Hsp90α (Homo sapiens, UniProt P07900); conditions: cited from earlier work
[6] = system: monocytic THP-1 cells; experiment: Pro-inflammatory cytokine gene expression by qRT-PCR (Table 1); type: cell-based; conditions: Control 1.0
Procedure: The major pro-inflammatory cytokines that are responsible for early inflammatory responses include IL1-α, IL1-β, IL-6, and TNF-α. […] Inflammatory cytokines and tissue factor gene expression were evaluated using quantitative real-time polymerase chain reaction (qRT-PCR). Amount of tissue factor was determined using a one stage clotting assay calibrated against a known amount of tissue factor (INNOVIN).

[7] = system: monocytic THP-1 cells; experiment: Pro-inflammatory cytokine protein expression (Table 1); type: cell-based; conditions: for IL-6 Protein Expression: Control 7.40; for IL-10 Protein Expression: Control 9.89; for IL-1β Protein Expression: Control 15.24; for IL-8 Protein Expression: Control 110.44; for TNF-α Protein Expression: Control 1611.19
[8] = system: mice with SCD; experiment: LPS challenge in Townes sickle cell (SS) and AA mice treated with AUY922; type: in vivo, mouse
Procedure: FIG. 4 is a schematic diagram of an experimental procedure for assaying HSP90 inhibitors for the treatment SCD.
FIG. 5A is a bar graph of HSP70/GAPDH (relative units) for mice treated with phosphate buffered saline (PBS) or AUY922 (25 mg/Kg B.W.) daily for four days. FIG. 5B is a bar graph of HSP70/GAPDH (relative units) for mice treated with 0.1 μg/g B.W. of LPS or 0.1 μg/g B.W. of LPS plus AUY922 (25 mg/Kg B.W.).
Cytokine (ng/ml) for AA or SS mice treated with control, AUY, LPS, or LPS+AUY is shown.
Mouse Phenotype: B6;129-Hba^tm1(HBA)Tow Hbb^tm2(HBG1,HBB*)Tow/Hbb^tm3(HBG1,HBB)Tow/J
Entire Mouse Globin Locus Removed and Replace by Human Hemoglobin S or A.
AA, SS, & SA mice are available.

[9] = system: Hsp90 derived from transformed cells overexpressing HER-2; conditions: cited from earlier work
[10] = system: non-tumor cells; conditions: cited from earlier work
[11] = preclinical data; cited from earlier work
[12] = system: Hsp70; conditions: cited from earlier work

CO[C@H]1/C=C\C=C(/C)C(=O)NC2=CC(=O)C(NCCN(C)C)=C(C[C@@H](C)C[C@H](OC)[C@H](O)[C@@H](C)/C=C(\C)[C@@H]1OC(N)=O)C2=O [17-DMAG, 17-Dimethylaminoethylamino-17-demethoxygeldanamycin]
HSP70 protein levels [1]: increases HSP70 protein levels | GI50 [2]: 51 nM | bioavailability [3]: excellent bioavailability | water solubility [4]: water-soluble | binding to ATPase site of human Hsp90α [5]: high affinity

CCNC(=O)c1noc(-c2cc(C(C)C)c(O)cc2O)c1-c1ccc(CN2CCOCC2)cc1 [AUY922, 5-(2,4-dihydroxy-5-isopropylphenyl)-N-ethyl-4-(4-(morpholinomethyl)phenyl)isoxazole-3-carboxamide]
HSP70 protein levels [1]: increases HSP70 protein levels | IL-1β Gene Expression (Fold) ([6]; AUY922 alone): 0.9 Fold | IL-6 Gene Expression (Fold) ([6]; AUY922 alone): 1.2 Fold | IL-8 Gene Expression (Fold) ([6]; AUY922 alone): 1.0 Fold | IL-10 Gene Expression (Fold) ([6]; AUY922 alone): 30.2 Fold | TNF-α Gene Expression (Fold) ([6]; AUY922 alone): 0.8 Fold | TNF-α Gene Expression (Fold) ([6]; LPS + AUY922, LPS alone 7.1): 6.2 Fold | IL-6 Gene Expression (Fold) ([6]; LPS + AUY922, LPS alone 42.5): 3.25 Fold | IL-8 Gene Expression (Fold) ([6]; LPS + AUY922, LPS alone 235.5): 795.5 Fold | IL-10 Gene Expression (Fold) ([6]; LPS + AUY922, LPS alone 350.4): 200.1 Fold | IL-1β Gene Expression (Fold) ([6]; LPS + AUY922, LPS alone 1950): 20 Fold | IL-6 Protein Expression ([7]; AUY922 alone): 7.10 | IL-10 Protein Expression ([7]; AUY922 alone): 4.20 | IL-1β Protein Expression ([7]; AUY922 alone): 14.24 | IL-8 Protein Expression ([7]; AUY922 alone): 130.61 | TNF-α Protein Expression ([7]; AUY922 alone): 1437.12 | IL-10 Protein Expression ([7]; LPS + AUY922, LPS alone 41.18): 2.95 | IL-6 Protein Expression ([7]; LPS + AUY922, LPS alone 156.51): 6.80 | IL-1β Protein Expression ([7]; LPS + AUY922, LPS alone 775.64): 14.57 | IL-8 Protein Expression ([7]; LPS + AUY922, LPS alone 839.99): 117.87 | TNF-α Protein Expression ([7]; LPS + AUY922, LPS alone 4391.73): 1587.49 | inflammation in in vivo model system for SCD ([8]; SS mice): significant decrease in inflammation | plasma levels of Il-1-Beta ([8]; SS mice): reduces plasma levels | plasma levels of TNF-alpha ([8]; SS mice): reduces plasma levels | LPS-induced Il-6 response ([8]; mice with SCD): ablates the profound LPS-induced Il-6 response | endothelial cell activation (sVCAM) ([8]; mice with SCD, PBS, AUY922, LPS or LPS+AUY): blocks endothelial cell activation | HSP70/GAPDH pharmacodynamic response ([8]; mice, AUY922 25 mg/Kg B.W. daily for four days, with or without LPS 0.1 μg/g B.W.): meets pharmacodynamic requirements

C=CCNC1=C2C[C@@H](C)C[C@H](OC)[C@H](O)[C@@H](C)/C=C(\C)[C@H](OC(N)=O)[C@@H](OC)/C=C\C=C(/C)C(=O)NC(=CC1=O)C2=O [17-AAG, 17-allylamino-17-demethoxygeldanamycin]
IC50 ([9]; Hsp90 from HER-2 overexpressing cells (BT474, N87, SKOV3, SKBR3) or BT474 breast carcinoma cells, read-out: 1050 values): 5 to 6 nM | higher affinity for Hsp90 derived from transformed cells ([9]; transformed cells overexpressing HER-2, comparator not printed (non-tumor cells are named just before)): more than 100 × | GI50 [2]: 120 nM | toxicity toward non-tumor cells [10]: low toxicity

CC(C)c1cc(-c2n[nH]c(=O)n2-c2ccc3c(ccn3C)c2)c(O)cc1O [Ganetespib]
cardiac or liver toxicity [11]: no evidence of cardiac or liver toxicity | Hsp70 expression [12]: induces the overexpression of Hsp70

C=CCNc1c(O)cc2c(O)c1C[C@@H](C)C[C@H](OC)[C@H](O)[C@@H](C)/C=C(\C)[C@H](OC(N)=O)[C@@H](OC)/C=C\C=C(/C)C(=O)N2.Cl [IPI-504, Retaspimycin hydrochloride]
bioavailability [3]: excellent bioavailability | water solubility [4]: water-soluble
